Patent US20040038950A1, “Pharmaceutical composition for treating IL-1 related diseases or disorders” (priority 2002, published 2004)

Columns and labels:
type II collagen mRNA = test: Osteoarthritic rabbit model (ACLT), intraarticular injection, RT-PCR of type II collagen; format: in vivo; conditions: rabbit ACLT knee, intraarticular once a week for 5 weeks
Procedure: (§1) Mature New Zealand White rabbits underwent bilateral anterior cruciate ligament transection (ACLT). ACLT was performed using a medial arthrotomy method. Postoperatively the animals were permitted cage (60 cm×60 cm×40 cm) activity without immobilization. The right knees received via intraartiticular injection DHEA, DHEA-pyruvate or DHEA+HA, 4 weeks after ACLT and once a week for 5 weeks. The left knees received 0.3 ml of intraarticular injection with control solution (carrier solution). After 9 weeks from ACLT, the animas were sacrificed.
(§2) Synovium (entire tissue) around the infrapatellar fat pads and cartilage tissue from the femoral condyle and the tibial plateau were harvested. The subsequent experimental procedure was the same as described in Test Example IV.

TIMP-1 mRNA = test: Osteoarthritic rabbit model (ACLT), intraarticular injection, RT-PCR of TIMP-1; format: in vivo; conditions: rabbit ACLT knee, intraarticular once a week for 5 weeks
Procedure: as §1, §2

MMP-3 mRNA = test: Effect of IL-1β on MMP-3 mRNA expression in chondrocyte culture, RT-PCR; format: cell-based, human; conditions: 100 μg/ml of IL-1β, 3 days
Procedure: (§3) Sixteen hours prior to a treatment, the complete culture medium was replaced with a serum-free medium. Chondrocyte alginate bead cultures were then treated with IL-1β ([…], (Calbiochem) and DHEA (0, 10, 50 or 100 μM) for 3 days.
(§4) Total RNA from chondrocytes was extracted using RNeasy Mini Kit (QIAGEN). Reverse transcription from 1 μg of total RNA was conducted using First Strand cDNA Synthesis Kit (MBI Fermentas) according to manufacturer's recommendation with random hexamers. The resulting cDNA was then amplified by polymerase chain reaction using AccuPower PCR Premix (Bioneer, Korea) in a final volume of 20 μl using three thermocycler temperatures (30 sec at […], 30 sec at 60° C., and 30 sec at […]). All reactions were determined to be in the linear range of amplification with the cycle number ranging from 14 to 30. The PCR products were analyzed by separation on a 2% agarose gel followed by ethidium bromide staining. Following electrophoresis, photographs were taken and analyzed using a densitometric program (TINA; Raytest Isotopenmeβgerate, Germany). Integrated density values for the genes in question were then normalized to the glyceraldehyde-3-phosphate dehydrogenase (GAPDH) values for a semiquantitative assessment. After normalizing with respect to GAPDH, percentage increase or decrease was determined. Each experiment was repeated at least three times. […]

MMP-1 mRNA = test: Effect of IL-1β on MMP-1 mRNA expression in chondrocyte culture, RT-PCR; format: cell-based, human; conditions: 1000 μg/ml of IL-1β, 3 days
Procedure: as §3, §4

CC(=O)C(=O)O[C@H]1CC[C@@]2(C)C(=CC[C@@H]3[C@@H]2CC[C@]2(C)C(=O)CC[C@@H]32)C1 [DHEA-pyruvate, DHEA-Pyruvate]
expression of type II collagen (type II collagen mRNA): increased | expression of TIMP-1 (TIMP-1 mRNA): increased

IL-1β: recombinant human interleukin-1β (Calbiochem), used to induce MMP mRNA in chondrocytes
MMP-3 mRNA, increase (MMP-3 mRNA): 310% | MMP-1 mRNA, increase (MMP-1 mRNA): 470%
